Laboratory results: patent US8410155B2, “Arylpropionamide, arylacrylamide, arylpropynamide, or arylmethylurea analogs as factor XIA inhibitors” (Bristol-Myers Squibb Company, priority 2006, dated 2013)
Where a name gives a salt, the structure may show the parent alone.

Target: T1, purified human Factor XIa (Homo sapiens, UniProt P03951)
T1 construct: purchased Haematologic Technologies
Assay: Factor XIa enzyme inhibition assay (chromogenic substrate S-2366)
Format: biochemical
Conditions: substrate S-2366, 50 mM HEPES pH 7.4
Method: The effectiveness of compounds of the present invention as inhibitors of the coagulation factors XIa, VIIa, IXa, Xa, XIIa, plasma kallikrein or thrombin, can be determined using a relevant purified serine protease, respectively, and an appropriate synthetic substrate. The rate of hydrolysis of the chromogenic or fluorogenic substrate by the relevant serine protease was measured both in the absence and presence of compounds of the present invention. […] A decrease in the rate of absorbance or fluorescence change in the presence of inhibitor is indicative of enzyme inhibition. Such methods are known to one skilled in the art. The results of this assay are expressed as the inhibitory constant, Ki.
Values of Ki were determined by allowing the protease to react with the substrate in the presence of the inhibitor. Reactions were allowed to go for periods of 20-180 minutes (depending on the protease) and the velocities (rate of absorbance or fluorescence change versus time) were measured. The following relationships were used to calculate Ki values: (vo−vs)/vs=I/(Ki(1+S/Km)) for a competitive inhibitor with one binding site; or vs/vo=A+((B−A)/1+((IC50/(I)^n))) and Ki=IC50/(1+S/Km) for a competitive inhibitor

T1 sequence (P03951 388-625 limits assumed): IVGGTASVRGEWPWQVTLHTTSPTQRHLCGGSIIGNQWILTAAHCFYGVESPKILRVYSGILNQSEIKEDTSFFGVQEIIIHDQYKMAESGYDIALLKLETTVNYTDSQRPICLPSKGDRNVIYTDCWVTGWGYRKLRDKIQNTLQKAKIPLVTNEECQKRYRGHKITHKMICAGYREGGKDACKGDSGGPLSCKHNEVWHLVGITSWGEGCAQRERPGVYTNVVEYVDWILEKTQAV
T1 sequence (P03951 19-387 partner limits assumed): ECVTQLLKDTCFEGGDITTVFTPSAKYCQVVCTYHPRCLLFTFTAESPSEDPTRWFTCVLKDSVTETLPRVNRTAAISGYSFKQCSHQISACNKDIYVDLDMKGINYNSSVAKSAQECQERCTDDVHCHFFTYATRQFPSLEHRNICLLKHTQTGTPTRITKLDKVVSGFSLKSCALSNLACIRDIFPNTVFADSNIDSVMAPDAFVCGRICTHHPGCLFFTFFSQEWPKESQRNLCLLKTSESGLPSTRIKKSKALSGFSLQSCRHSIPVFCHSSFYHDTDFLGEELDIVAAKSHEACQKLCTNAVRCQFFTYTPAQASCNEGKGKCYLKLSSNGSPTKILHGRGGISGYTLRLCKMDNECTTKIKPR

| Compound | Ki [nM] |
| --- | --- |
| O=C(/C=C/c1cc(Cl)ccc1-n1cnnn1)NCc1nc(-c2ccc3c(c2)CCC(=O)N3)c(Cl)[nH]1 [Example 3, (E)-N-[5-Chloro-4-(2-oxo-1,2,3,4-tetrahydro-quinolin-6-yl)-1H-imidazol-2-ylmethyl]-3-(5-chloro-2-tetrazol-1-yl-phenyl)-acrylamide, trifluoroacetic acid salt] | 12.1 |
| COC(=O)Nc1ccc(-c2cncc(CNC(=O)/C=C/c3cc(Cl)ccc3-n3cnnn3)c2)cc1 [Example 5, [4-(5-{[(E)-3-(5-Chloro-2-tetrazol-1-yl-phenyl)-acryloylamino]-methyl}-pyridin-3-yl)-phenyl]-carbamic acid methyl ester, trifluoroacetic acid salt] | 283 |
| COC(=O)Nc1ccc(-c2ccnc(CNC(=O)/C=C/c3cc(Cl)ccc3-n3cnnn3)c2)cc1 [Example 7, [4-(2-{[(E)-3-(5-Chloro-2-tetrazol-1-yl-phenyl)-acryloylamino]-methyl}-pyridin-4-yl)-phenyl]-carbamic acid methyl ester, trifluoroacetic acid salt] | 475 |

The remaining lines, values ahead:

| Ki [nM] | Compound |
| --- | --- |
| 27.3 | COC(=O)Nc1ccc(-c2[nH]c(CNC(=O)/C=C/c3cc(Cl)ccc3-n3cnnn3)nc2Cl)cc1 [Example 1, [4-(5-chloro-2-{[(E)-3-(5-chloro-2-tetrazol-1-yl-phenyl)-acryloylamino]-methyl}-1H-imidazol-4-yl)-phenyl]-carbamic acid methyl ester, trifluoroacetic acid salt] |
| 16.8 | COC(=O)Nc1ccc(-c2nc(CNC(=O)CCc3cc(Cl)ccc3-n3cnnn3)[nH]c2Cl)cc1 [Example 2, [4-(5-Chloro-2-{[3-(5-chloro-2-tetrazol-1-yl-phenyl)-propionylamino]-methyl}-1H-imidazol-4-yl)-phenyl]-carbamic acid methyl ester, trifluoroacetic acid salt] |
| 1250 | COC(=O)Nc1ccc(-c2cncc(CNC(=O)CCc3cc(Cl)ccc3-n3cnnn3)c2)cc1 [Example 6, [4-(5-{[3-(5-Chloro-2-tetrazol-1-yl-phenyl)-propionylamino]-methyl}-pyridin-3-yl)-phenyl]-carbamic acid methyl ester, trifluoroacetic acid salt] |
| 277 | COC(=O)Nc1ccc(-c2c[nH]c(=O)c(CNC(=O)/C=C/c3cc(Cl)ccc3-n3cnnn3)c2)cc1 [Example 8, [4-(5-{[(E)-3-(5-Chloro-2-tetrazol-1-yl-phenyl)-acryloylamino]-methyl}-6-oxo-1,6-dihydro-pyridin-3-yl)-phenyl]-carbamic acid methyl ester] |
| 1510 | COC(=O)Nc1ccc(-c2nc(CN(Cc3ccccc3)C(=O)/C=C/c3cc(Cl)ccc3-n3cnnn3)[nH]c2Cl)cc1 [Example 10, {4-[2-({Benzyl-[(E)-3-(5-chloro-2-tetrazol-1-yl-phenyl)-acryloyl]-amino}-methyl)-5-chloro-1H-imidazol-4-yl]-phenyl}-carbamic acid methyl ester, trifluoroacetic acid salt] |
